The source made the active and inactive calls. The calls are words filed in the database; no cut-off is given here.
Key:
HCT-116 [1] = test: Inhibition of colony formation in human HCT-116 cells irradiated with 365 nm of UV light for 5 min at 100 nM incubated for 24 hrs by crystal violet staining based assay; type: functional, cell-based
[2] = Stability in rat plasma assessed as half life at 1 uM measured upto 120 min by LC-MS/MS analysis; type: ADME, cell-free
[3] = Apparent permeability across apical to basolateral side in human Caco-2 cells at 10 uM incubated for 2 hrs by LC-MS/MS analysis; type: ADME, cell-based
HCT-116 [4] = test: Anticancer activity against fluorescent labeled human HCT-116 cells xenografted in yolk of zebra embryo assessed as reduction in tumor size by measuring fluorescence density at 31.3 nM irradiated with 365 nm of UV light incubated for 48 hrs by fluorescence microscopic analysis; type: functional, cell-based
[5] = molecular target: T1, Phosphatidylinositol 4,5-bisphosphate 3-kinase catalytic subunit alpha isoform (Homo sapiens, UniProt P42336); test: Inhibition of PI3K alpha (unknown origin) using PIP2 as substrate incubated in dark at room temperature for 1 hr in presence of ATP by ADP-Glo luminescent assay
T1 sequence (P42336 whole entry, canonical isoform): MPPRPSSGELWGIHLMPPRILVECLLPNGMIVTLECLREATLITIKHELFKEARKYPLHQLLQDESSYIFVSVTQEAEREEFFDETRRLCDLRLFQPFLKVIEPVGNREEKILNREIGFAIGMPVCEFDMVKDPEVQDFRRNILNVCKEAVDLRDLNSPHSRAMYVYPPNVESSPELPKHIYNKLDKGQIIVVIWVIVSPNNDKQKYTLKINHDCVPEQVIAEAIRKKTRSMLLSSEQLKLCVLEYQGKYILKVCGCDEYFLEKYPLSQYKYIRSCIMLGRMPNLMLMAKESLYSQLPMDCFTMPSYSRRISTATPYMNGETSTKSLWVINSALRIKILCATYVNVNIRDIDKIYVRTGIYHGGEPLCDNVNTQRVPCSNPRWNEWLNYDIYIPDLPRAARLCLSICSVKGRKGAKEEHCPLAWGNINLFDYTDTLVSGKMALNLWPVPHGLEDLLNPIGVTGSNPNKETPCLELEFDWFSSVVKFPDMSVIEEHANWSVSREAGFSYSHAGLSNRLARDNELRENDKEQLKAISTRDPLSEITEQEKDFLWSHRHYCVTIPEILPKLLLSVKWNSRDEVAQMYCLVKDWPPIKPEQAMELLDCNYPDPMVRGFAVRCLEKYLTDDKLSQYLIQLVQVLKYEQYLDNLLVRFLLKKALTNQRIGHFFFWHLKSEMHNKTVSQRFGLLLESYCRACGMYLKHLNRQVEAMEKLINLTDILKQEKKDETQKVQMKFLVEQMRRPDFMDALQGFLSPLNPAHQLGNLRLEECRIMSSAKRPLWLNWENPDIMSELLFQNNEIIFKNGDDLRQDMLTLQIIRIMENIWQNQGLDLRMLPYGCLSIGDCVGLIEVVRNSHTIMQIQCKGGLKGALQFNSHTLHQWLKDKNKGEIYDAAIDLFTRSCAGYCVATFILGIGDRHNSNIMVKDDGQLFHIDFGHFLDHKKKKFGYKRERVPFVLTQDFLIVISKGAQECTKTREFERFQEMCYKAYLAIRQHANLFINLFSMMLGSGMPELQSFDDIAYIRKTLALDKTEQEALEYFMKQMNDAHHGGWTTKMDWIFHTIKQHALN

HGC-27 [6] = test: Inhibition of PI3K/AKT signalling pathway in human HGC-27 cells assessed as downregulation of AKT phosphorylation at […] residue at 100 nM irradiated with 365 nm UV light for 5 mins and incubated for 24 hrs by Western blot; type: cell-based
Homo sapiens [7] = species on record: Homo sapiens; test: Anticancer activity against KOES-007 patient derived stomach cancer organoid assessed as inhibition of cell growth irradiated with 365 nm of UV light for 2 mins and incubated for 120 hrs; type: functional, tissue-based
Homo sapiens [8] = species on record: Homo sapiens; test: Anticancer activity against KOCO-096 patient derived colon cancer organoid assessed as inhibition of cell growth irradiated with 365 nm of UV light for 2 mins and incubated for 120 hrs; type: functional, tissue-based
[9] = molecular target: T2, Phosphatidylinositol 4,5-bisphosphate 3-kinase catalytic subunit delta isoform (Homo sapiens, UniProt O00329); test: Inhibition of PI3K delta (unknown origin) using PIP2 as substrate incubated in dark at room temperature for 1 hr in presence of ATP by ADP-Glo luminescent assay
T2 sequence (O00329 whole entry): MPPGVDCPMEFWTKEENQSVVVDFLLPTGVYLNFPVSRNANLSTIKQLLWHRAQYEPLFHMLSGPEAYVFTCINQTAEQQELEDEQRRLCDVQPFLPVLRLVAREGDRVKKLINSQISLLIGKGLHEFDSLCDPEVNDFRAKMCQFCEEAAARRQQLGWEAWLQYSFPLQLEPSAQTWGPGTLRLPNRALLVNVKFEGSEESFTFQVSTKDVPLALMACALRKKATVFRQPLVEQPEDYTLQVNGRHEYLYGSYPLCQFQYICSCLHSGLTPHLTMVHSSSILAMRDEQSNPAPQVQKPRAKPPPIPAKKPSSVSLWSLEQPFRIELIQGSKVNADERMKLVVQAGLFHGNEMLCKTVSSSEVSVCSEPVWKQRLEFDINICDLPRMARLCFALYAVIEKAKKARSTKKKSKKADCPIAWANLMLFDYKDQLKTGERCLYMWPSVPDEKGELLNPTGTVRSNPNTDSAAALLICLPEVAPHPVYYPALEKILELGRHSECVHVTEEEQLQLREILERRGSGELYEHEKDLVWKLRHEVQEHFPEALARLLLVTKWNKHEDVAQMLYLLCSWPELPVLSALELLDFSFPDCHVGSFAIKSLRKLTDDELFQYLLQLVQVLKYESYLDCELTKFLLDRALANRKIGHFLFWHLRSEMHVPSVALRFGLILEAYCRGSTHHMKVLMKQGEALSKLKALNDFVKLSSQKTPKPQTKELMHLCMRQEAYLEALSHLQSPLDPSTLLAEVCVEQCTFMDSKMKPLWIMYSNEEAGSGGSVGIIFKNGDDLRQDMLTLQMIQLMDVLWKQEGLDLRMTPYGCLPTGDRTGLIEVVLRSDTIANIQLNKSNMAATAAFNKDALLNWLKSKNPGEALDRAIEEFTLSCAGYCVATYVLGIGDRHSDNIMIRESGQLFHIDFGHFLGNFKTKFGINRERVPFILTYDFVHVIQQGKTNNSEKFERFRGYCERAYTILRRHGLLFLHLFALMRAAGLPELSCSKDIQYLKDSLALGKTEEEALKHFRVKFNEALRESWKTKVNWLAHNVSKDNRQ

HGC-27 [10] = test: Antiproliferative activity against human HGC-27 cells assessed as reduction in cell viability incubated in dark for 96 hrs by MTT assay; type: functional, cell-based; settings: HGC-27, 96 h
[11] = Plasma protein binding in rat at 1 uM by LC-MS/MS analysis; type: ADME, cell-free; settings: read-out: PPB (converted)
HCT-116 [12] = test: Inhibition of PI3K/AKT signalling pathway in human HCT-116 cells assessed as downregulation of AKT phosphorylation at […] residue at 100 nM irradiated with 365 nm UV light for 5 mins and incubated for 24 hrs by Western blot; type: cell-based
HGC-27 [13] = test: Antiproliferative activity against human HGC-27 cells assessed as reduction in cell viability irradiated with 365 nm of UV for 5 mins and incubated in dark for 96 hrs by MTT assay; type: functional, cell-based; settings: HGC-27, light or radiation study
BGC-823 [14] = test: Antiproliferative activity against human BGC-823 cells assessed as reduction in cell viability irradiated with 365 nm of UV for 5 mins and incubated in dark for 96 hrs by MTT assay; type: functional, cell-based; settings: BGC-823, light or radiation study
MG-63 = test: Antiproliferative activity against human MG-63 cells assessed as reduction in cell viability incubated in dark for 96 hrs by MTT assay; type: functional, cell-based; settings: MG-63, 96 h
[15] = Photo stability of compound assessed as release of 2,4-difluoro-N-(2-methoxy-5-(4-methyl-8-(tetrahydro-2H-pyran-4-yloxy)quinazolin-6-yl)pyridin-3-yl)benzenesulfonamide by measuring half life irradiated with 365 nm of UV for 5 min measured by HPLC analysis; type: physicochemical
[16] = Stability in dog plasma assessed as half life at 1 uM measured upto 120 min by LC-MS/MS analysis; type: ADME, cell-free, Canis lupus familiaris
HGC-27 [17] = test: Inhibition of PI3K/AKT signalling pathway in human HGC-27 cells assessed as downregulation of AKT phosphorylation at Ser473 residue at 100 nM irradiated with 365 nm UV light for 5 mins and incubated for 24 hrs by Western blot; type: cell-based
MGC-803 = test: Antiproliferative activity against human MGC-803 cells assessed as reduction in cell viability irradiated with 365 nm of UV for 5 mins and incubated in dark for 96 hrs by MTT assay; type: functional, cell-based; settings: MGC-803, light or radiation study
[18] = Apparent permeability across basolateral to apical side in human Caco-2 cells at 10 uM incubated for 2 hrs by LC-MS/MS analysis; type: ADME, cell-based
[19] = Stability of the compound in dark condition at room temperature after 6 month; type: physicochemical; settings: 4380 h; time 6 months
HCT-116 [20] = test: Inhibition of PI3K/AKT signalling pathway in human HCT-116 cells assessed as downregulation of […] phosphorylation at 100 nM incubated for 24 hrs under dark condition by Western blot; type: cell-based
HGC-27 [21] = test: Inhibition of colony formation in human HGC-27 cells irradiated with 365 nm of UV light for 5 min at 100 nM incubated for 24 hrs by crystal violet staining based assay; type: functional, cell-based
BGC-823 [22] = test: Antiproliferative activity against human BGC-823 cells assessed as reduction in cell viability incubated in dark for 96 hrs by MTT assay; type: functional, cell-based; settings: BGC-823, 96 h
AGS = test: Antiproliferative activity against human AGS cells assessed as reduction in cell viability irradiated with 365 nm of UV for 5 mins and incubated in dark for 96 hrs by MTT assay; type: functional, cell-based; settings: light or radiation study
[23] = molecular target: T1, Phosphatidylinositol 4,5-bisphosphate 3-kinase catalytic subunit alpha isoform; test: Inhibition of PI3K alpha (unknown origin) using PIP2 as substrate irradiated with 365 nm of UV exposure for 2 mins and incubation in dark at room temperature for 1 hr in presence of ATP measured by ADP-Glo luminescent assay

Compound: COc1cc(CN(c2cc(-c3cc(OC4CCOCC4)c4ncnc(C)c4c3)cnc2OC)S(=O)(=O)c2ccc(F)cc2F)c([N+](=O)[O-])cc1OC
- inhibition (HCT-116 [1]): Active
- half-life at 1 µM [2]: > 2 h
- Papp A→B at 2 h, 10 µM [3]: 0.49 ×10⁻⁶ cm/s
- Activity (HCT-116 [4]): Active
- IC50 [5]: 343 nM
- inhibition (HGC-27 [6]): Active
- Activity (Homo sapiens [7]): Active
- Activity (Homo sapiens [8]): Active
- IC50 [9]: 3010 nM
- IC50 (HGC-27 [10]): 248 nM
- fraction unbound at 1 µM [11]: 0.006
- inhibition (HCT-116 [12]): Active
- IC50 (HGC-27 [13]): 13.8 nM
- IC50 (BGC-823 [14]): 103 nM
- IC50 (MG-63): 1840 nM
- t1/2 [15]: 5 min
- half-life at 1 µM [16]: > 2 h
- inhibition (HGC-27 [17]): Active
- IC50 (MGC-803): 329 nM
- Papp B→A at 2 h, 10 µM [18]: 1.95 ×10⁻⁶ cm/s
- Stability [19]: Stable
- inhibition (HCT-116 [20]): inactive
- inhibition (HGC-27 [21]): Active
- IC50 (BGC-823 [22]): 2360 nM
- IC50 (AGS): 70.3 nM
- IC50 [23]: 0.58 nM
